Experimental findings from patent US9226500B2, “Pesticidal compositions and processes related thereto” (Dow AgroSciences LLC, priority 2012, dated 2016) are described below.

This assay relates to Beet Armyworm (Spodoptera exigua). In words: Bioassay on Beet Armyworm (BAW), 128-well diet tray assay. Format: in vivo. Conditions: Table 3, Assays Results Part 1.

In the case of `O=C(CC(F)(F)F)NCc1ncc(/C=C/C(c2cc(Cl)c(Cl)c(Cl)c2)C(F)(F)F)cc1Cl` (stereo not drawn) [CC44, (E)-N-((3-Chloro-5-(4,4,4-trifluoro-3-(3,4,5-trichlorophenyl)-but-1-en-1-yl)pyridin-2-yl)methyl)-3,3,3-trifluoropropanamide], the “BAW Rating” value is recorded as “A (50-100)”.

Regarding `O=C(NCc1ncc(/C=C/C(c2cc(Cl)c(Cl)c(Cl)c2)C(F)(F)F)cc1Cl)C1CC1` (stereo not drawn) [CC45], the “BAW Rating” value was “A (50-100)”.

Consider `O=C(NNc1ccc(/C=C/C(c2cc(Cl)c(Cl)c(Cl)c2)C(F)(F)F)cc1)C1CC1` (stereo not drawn) [CC50, (E)-N′-(4-(4,4,4-Trifluoro-3-(3,4,5-trichlorophenyl)but-1-en-1-yl)phenyl)cyclopropanecarbohydrazide], for which the “BAW Rating” value is “A (50-100)”.

`O=C(CC(F)(F)F)NNc1ccc(/C=C/C(c2cc(Cl)c(Cl)c(Cl)c2)C(F)(F)F)cc1` (stereo not drawn) [CC51]: the “BAW Rating” value was “A (50-100)”.

For the compound `O=C(NOc1ccc(/C=C/C(c2cc(Cl)c(Cl)c(Cl)c2)C(F)(F)F)cc1)C1CC1` (stereo not drawn) [CC52, (E)-N-(4-(4,4,4-Trifluoro-3-(3,4,5-trichlorophenyl)but-1-en-1-yl)phenoxy)cyclopropanecarboxamide], the “BAW Rating” value was “A (50-100)”.

As for `O=C(CC(F)(F)F)NCc1ccc(/C=C\C(c2cc(Cl)c(Cl)c(Cl)c2)C(F)(F)F)cc1` (stereo not drawn) [CC54, (Z)-3,3,3-Trifluoro-N-(4-(4,4,4-trifluoro-3-(3,4,5-trichlorophenyl)but-1-en-1-yl)benzyl)propanamide], the “BAW Rating” value is given as “A (50-100)”.

For `FC(F)(F)C(/C=C/c1ccc(-n2cncn2)cc1)c1cc(Cl)cc(Cl)c1` (stereo not drawn) [DC1, (E)-1-(4-(3-(3,5-Dichlorophenyl)-4,4,4-trifluorobut-1-en-1-yl)phenyl)-1H-1,2,4-triazole], the “BAW Rating” value is “A (50-100)”.

`FC(F)(F)C(/C=C/c1ccc(-n2cncn2)cc1)c1ccccc1` (stereo not drawn) [DC3]: the “BAW Rating” value is reported as “B (More than 0-Less than 50)”.

Turning to `FC(F)(F)C(/C=C/c1ccc(-n2cncn2)cc1)c1ccc(Cl)cc1` (stereo not drawn) [DC4], the “BAW Rating” value is “A (50-100)”.

Take `Fc1ccc(C(/C=C/c2ccc(-n3cncn3)cc2)C(F)(F)F)cc1` (stereo not drawn) [DC7]: the “BAW Rating” value is listed as “A (50-100)”.

Consider `Fc1cc(F)cc(C(/C=C/c2ccc(-n3cncn3)cc2)C(F)(F)F)c1` (stereo not drawn) [DC8], for which the “BAW Rating” value was “A (50-100)”.

For the compound `Cc1cc(C)cc(C(/C=C/c2ccc(-n3cncn3)cc2)C(F)(F)F)c1` (stereo not drawn) [DC11], the “BAW Rating” value was “A (50-100)”.

For `FC(F)(F)C(/C=C/c1ccc(-n2cncn2)cc1)c1ccc(Cl)c(Cl)c1` (stereo not drawn) [DC12], the “BAW Rating” value is reported as “A (50-100)”.

Consider `FC(F)(F)c1cc(C(/C=C/c2ccc(-n3cncn3)cc2)C(F)(F)F)cc(C(F)(F)F)c1` (stereo not drawn) [DC16], for which the “BAW Rating” value is reported as “A (50-100)”.

With `COc1c(Cl)cc(C(/C=C/c2ccc(-n3cncn3)cc2)C(F)(F)F)cc1Cl` (stereo not drawn) [DC20], the “BAW Rating” value is listed as “A (50-100)”.

Consider `N#Cc1cc(/C=C/C(c2cc(Cl)cc(C(F)(F)F)c2)C(F)(F)F)ccc1-n1cncn1` (stereo not drawn) [DC33], for which the “BAW Rating” value is recorded as “A (50-100)”.

As to `COc1c(Cl)cc(C(/C=C/c2ccc(-n3cncn3)c(C#N)c2)C(F)(F)F)cc1Cl` (stereo not drawn) [DC34], the “BAW Rating” value was “A (50-100)”.

Turning to `N#Cc1cc(/C=C/C(c2cc(Cl)c(F)c(Cl)c2)C(F)(F)F)ccc1-n1cncn1` (stereo not drawn) [DC35], the “BAW Rating” value is on record as “A (50-100)”.

Turning to `N#Cc1cc(/C=C/C(c2cc(Cl)cc(Cl)c2)C(F)(F)F)ccc1-n1cnc([N+](=O)[O-])n1` (stereo not drawn) [DC37], the “BAW Rating” value was “A (50-100)”.

`N#Cc1cc(/C=C/C(c2cc(Cl)cc(Cl)c2)C(F)(F)F)ccc1-n1cnc(N)n1` (stereo not drawn) [DC38]: the “BAW Rating” value was “A (50-100)”.

Take `CC(=O)Nc1ncn(-c2ccc(/C=C/C(c3cc(Cl)cc(Cl)c3)C(F)(F)F)cc2C#N)n1` (stereo not drawn) [DC39]: the “BAW Rating” value is “A (50-100)”.

As for `N#Cc1cc(/C=C/C(c2cc(Cl)c(Cl)c(Cl)c2)C(F)(F)F)ccc1-n1cnc([N+](=O)[O-])n1` (stereo not drawn) [DC40, (E)-2-(3-Nitro-1H-1,2,4-triazol-1-yl)-5-(4,4,4-trifluoro-3-(3,4,5-trichlorophenyl)but-1-en-1-yl)benzonitrile], the “BAW Rating” value is “A (50-100)”.

Regarding `N#Cc1cc(/C=C/C(c2cc(Cl)c(Cl)c(Cl)c2)C(F)(F)F)ccc1-n1cnc(N)n1` (stereo not drawn) [DC41, (E)-2-(3-Amino-1H-1,2,4-triazol-1-yl)-5-(4,4,4-trifluoro-3-(3,4,5-trichlorophenyl)but-1-en-1-yl)benzonitrile], the “BAW Rating” value was “A (50-100)”.

With `N#Cc1cc(/C=C/C(c2cc(Cl)c(Cl)c(Cl)c2)C(F)(F)F)ccc1-n1cnc(N(C(=O)C2CC2)C(=O)C2CC2)n1` (stereo not drawn) [DC42, (E)-N-(1-(2-Cyano-4-(4,4,4-trifluoro-3-(3,4,5-trichlorophenyl)but-1-en-1-yl)phenyl)-1H-1,2,4-triazol-3-yl)-N-(cyclopropanecarbonyl)cyclopropanecarboxamide], the “BAW Rating” value is reported as “A (50-100)”.

Regarding `N#Cc1cc(/C=C/C(c2cc(Cl)c(Cl)c(Cl)c2)C(F)(F)F)ccc1-n1cnc(NC(=O)C2CC2)n1` (stereo not drawn) [DC43, (E)-N-(1-(2-Cyano-4-(4,4,4-trifluoro-3-(3,4,5-trichlorophenyl)but-1-en-1-yl)phenyl)-1H-1,2,4-triazol-3-yl)cyclopropanecarboxamide], the “BAW Rating” value is on record as “A (50-100)”.

As for `Cc1cc(/C=C/C(c2cc(Cl)cc(Cl)c2)C(F)(F)F)cc(C#N)c1-n1cncn1` (stereo not drawn) [DC44], the “BAW Rating” value is listed as “A (50-100)”.

With `Cc1cc(/C=C/C(c2cc(Cl)c(Cl)c(Cl)c2)C(F)(F)F)cc(C#N)c1-n1cncn1` (stereo not drawn) [DC45], the “BAW Rating” value was “A (50-100)”.

Take `N#Cc1cc(/C=C\C(c2cc(Cl)c(F)c(Cl)c2)C(F)(F)F)ccc1-n1cncn1` (stereo not drawn) [DC46]: the “BAW Rating” value is reported as “A (50-100)”.

Take `FC(F)(F)C(/C=C/c1ccc(-n2cncn2)c(Br)c1)c1cc(Cl)cc(Cl)c1` (stereo not drawn) [DC47]: the “BAW Rating” value is “A (50-100)”.

In the case of `Fc1cc(/C=C/C(c2cc(Cl)cc(Cl)c2)C(F)(F)F)ccc1-n1cncn1` (stereo not drawn) [DC48], the “BAW Rating” value was “A (50-100)”.

For `FC(F)(F)C(/C=C/c1ccc(-n2cncn2)c(Cl)c1)c1cc(Cl)c(Cl)c(Cl)c1` (stereo not drawn) [DC49], the “BAW Rating” value is given as “A (50-100)”.

For `FC(F)(F)C(/C=C/c1ccc(-n2cncn2)c(Cl)c1)c1cc(Cl)cc(Cl)c1` (stereo not drawn) [DC50], the “BAW Rating” value is listed as “A (50-100)”.

Take `FC(F)(F)c1cc(/C=C/C(c2cc(Cl)cc(Cl)c2)C(F)(F)F)ccc1-n1cncn1` (stereo not drawn) [DC51]: the “BAW Rating” value is given as “A (50-100)”.

Consider `CNc1cc(/C=C/C(c2cc(Cl)cc(Cl)c2)C(F)(F)F)ccc1-n1cncn1` (stereo not drawn) [DC57, (E)-5-(3-(3,5-Dichlorophenyl)-4,4,4-trifluorobut-1-en-1-yl)-N-methyl-2-(1H-1,2,4-triazol-1-yl)aniline], for which the “BAW Rating” value is given as “A (50-100)”.

On to `CCOC(=O)c1cc(/C=C/C(c2cc(Cl)cc(Cl)c2)C(F)(F)F)ccc1-n1cncn1` (stereo not drawn) [DC60], for which the “BAW Rating” value is “A (50-100)”.

As to `Cc1cc(/C=C/C(c2cc(Cl)cc(Cl)c2)C(F)(F)F)ccc1-n1cncn1` (stereo not drawn) [DC62], the “BAW Rating” value is recorded as “A (50-100)”.

For the compound `Cc1cc(/C=C/C(c2cc(Cl)c(Cl)c(Cl)c2)C(F)(F)F)ccc1-n1cncn1` (stereo not drawn) [DC63], the “BAW Rating” value is “A (50-100)”.

Regarding `FC(F)(F)C(/C=C/c1ccc(-n2cncn2)cc1Cl)c1cc(Cl)c(Cl)c(Cl)c1` (stereo not drawn) [DC66], the “BAW Rating” value was “A (50-100)”.

With `FC(F)(F)C(/C=C/c1ccc(-n2cncn2)cc1Cl)c1cc(Cl)cc(Cl)c1` (stereo not drawn) [DC67], the “BAW Rating” value is given as “A (50-100)”.
